Data: paper PMC6837752, “Effectiveness of four types of neuraminidase inhibitors approved in Japan for the treatment of influenza” (PLoS ONE, 2019)
Where “and” joins values, the source holds several entries; their conditions need not be identical. Equal values may be shown once.

Assays:
influenza B = settings: patients aged 5 to 18 years, cited from earlier work
[1] = system: influenza A/H1N1pdm09, A/H3N2, and B viruses; assay: Fever duration after NAI treatment in outpatients with laboratory confirmed influenza (observational study); type: in vivo, human; settings: for HR (Cox proportional hazards model of fever duration): multivariable analysis, compared to oseltamivir (reference 1.00); for Mean fever duration after NAI treatment: univariate analysis, all patients aged <20 years, all types/subtypes, from start of treatment to <37.5 °C
[2] = system: oseltamivir-sensitive influenza A/H1N1pdm09 virus; type: in vivo; settings: oseltamivir-treated patients 0–5 years, oseltamivir-sensitive viruses, n = 111

Compound | Median fever duration longer than for peramivir (influenza B; P <0.01) [days] | Median fever duration after treatment (influenza B) [days] | Average fever duration ([1]; age group 0 to 5 years) [h] | Average fever duration ([1]; age group 6 to 9 years) [h] | Average fever duration ([1]; age group 10 to 19 years) [h] | HR (Cox proportional hazards model of fever duration) [1] | Mean fever duration after NAI treatment [1] [h] | Average fever duration [2]
[H]/N=C(\N)N[C@H]1C=C(C(=O)O)O[C@@H]([C@H](OC)[C@H](O)CO)[C@@H]1NC(C)=O [Laninamivir, laninamivir] | 1 | 3 | 75.8 | 42.9 | 36.6 | 0.78 | 39.8 | –
CCOC(=O)C1=C[C@@H](OC(CC)CC)[C@H](NC(C)=O)[C@@H](N)C1 [Oseltamivir, oseltamivir] | – | – | 42.2 | 37.3 | 29.8 | 1.00 | 40.1 | 40 h and 40 ± 27 h
CC(=O)N[C@H]1[C@H]([C@H](O)[C@H](O)CO)OC(C(=O)O)=C[C@@H]1N=C(N)N [Zanamivir, zanamivir] | – | – | 45.4 | 42.3 | 35.4 | 0.87 | 38.5 | –
peramivir | – | – | 46.3 | 31.3 | 32.3 | 1.05 | 38.3 | –
